The target in assay [1] is T1, human BRD4 bromodomain II (Homo sapiens, UniProt O60885).
T1 construct: human BRD4 bromodomain II [based on Genbank NM_058243, residues 349-460]; host or cells: E. coli
Description: Bromodomain binding assay (AlphaScreen), BRD4 BDII. Conditions: BRD4 BDII AlphaScreen assay; read-out: BRD4 BD2 IC50. The gist of the method:
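Compounds (10-point, 3-fold series) were preincubated 30 min at room temperature with E. coli-expressed N-terminal His6-tagged BRD4 BDII (residues 349-460) or BDI (residues 44-170) in 50 mM HEPES pH 7.5, 100 mM NaCl, 0.05% CHAPS, 0.1% BSA, 1% DMSO. Displacement of biotinylated tetra-acetylated H4 1-21 peptide was read by AlphaScreen; IC50 from curve fitting.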

Assay [2] concerns human SKM-1 acute myeloid leukemia cells. Description: SKM-1 antiproliferation cell-based assay (ATPlite). The gist of the method:
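Log-phase cells in RPMI 1640/15% FBS were seeded at 34722 cells/mL and exposed for 4 days to nine-concentration DMSO serial dilutions in triplicate. Viability was read as ATP luminescence (ATPlite 1step), and IC50 values came from variable-slope non-linear regression.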

[3] abbreviates: Homo sapiens, SKM-1, SKM-1 antiproliferation assay.

SMILES strings stand for the structures.

On to `Cc1cc(-c2ccc(-n3ccn(C)c3=O)c(Cl)c2)c(O)c(-c2cc(N3CCN(C(C)(C)C)CC3)c3nccn3c2)n1` [Example 971, 1-(4-(2-(8-(4-(tert-butyl)piperazin-1-yl)imidazo[1,2-a]pyridin-6-yl)-3-hydroxy-6-methylpyridin-4-yl)-2-chlorophenyl)-3-methyl-1H-imidazol-2(3H)-one], for which, in assay [1], the concentration for half-maximal inhibition (IC50) was 0.01 to 1 nM. In assay [2] (setting [3]), the GI50 lay in the range of 0.3 to 30 nM.
With `COc1ncc(-c2nc(C)cc(-c3ccc(-n4ccn(C)c4=O)c(Cl)c3)c2O)cc1N1CCC2(CCCN2C(C)C)C1` (centres unmarked) [Example 972, 1-(2-chloro-4-(3-hydroxy-5′-(1-isopropyl-1,7-diazaspiro[4.4]nonan-7-yl)-6′-methoxy-6-methyl-[2,3′-bipyridin]-4-yl)phenyl)-3-methyl-1H-imidazol-2(3H)-one], the IC50 in assay [1] is 0.01 to 1 nM. Further, in assay [2] (setting [3]), the 50% growth inhibitory concentration (GI50) fell in the range of 0.3 to 30 nM.
For `Cc1cc(-c2ccc(-n3ccn(C)c3=O)c(Cl)c2)c(O)c(-c2cnc(C)c(N3CCC4(CCCN4C(C)C)C3)c2)n1` (centres unmarked) [Example 973, 1-(2-chloro-4-(3-hydroxy-5′-(1-isopropyl-1,7-diazaspiro[4.4]nonan-7-yl)-6,6′-dimethyl-[2,3′-bipyridin]-4-yl)phenyl)-3-methyl-1H-imidazol-2(3H)-one], in that order: 0.01 to 1 nM and 0.3 to 30 nM.
For `Cc1cc(-c2ccc(-n3ccn(C)c3=O)c(Cl)c2)c(O)c(-c2cnc(C)c(N3CCC4(CCN4C(C)C)C3)c2)n1` (centres unmarked) [Example 974, 1-(2-chloro-4-(3-hydroxy-5′-(1-isopropyl-1,6-diazaspiro[3.4]octan-6-yl)-6,6′-dimethyl-[2,3′-bipyridin]-4-yl)phenyl)-3-methyl-1H-imidazol-2(3H)-one] the same measures were 0.01 to 1 nM and 0.3 to 30 nM.
With `Cc1cc(-c2ccc(-n3ccn(C)c3=O)c(Cl)c2)c(O)c(-c2cnc(N)c(N3CCC4(CCN4C(C)C)C3)c2)n1` (centres unmarked) [Example 975, 1-(4-(6′-amino-3-hydroxy-5′-(1-isopropyl-1,6-diazaspiro[3.4]octan-6-yl)-6-methyl-[2,3′-bipyridin]-4-yl)-2-chlorophenyl)-3-methyl-1H-imidazol-2(3H)-one], in assay [1], the IC50 was in the range of 1 to 10 nM. This compound also displayed a 50% growth inhibitory concentration (GI50) in assay [2] (setting [3]) of 0.3 to 30 nM.
For `Cn1ccn(-c2ccc(-c3ccnc(-c4cccc(N5CCN(C(C)(C)C)CC5)c4)c3N)cc2Cl)c1=O` [Example 976, 1-(4-(3-Amino-2-(3-(4-(tert-butyl)piperazin-1-yl)phenyl)pyridin-4-yl)-2-chlorophenyl)-3-methyl-1H-imidazol-2(3H)-one] the same measures were 1 to 10 nM and 0.3 to 30 nM.
For the compound `COc1ncc(-c2nc(C)cc(-c3ccc(-n4ccn(C)c4=O)c(Cl)c3)c2O)cc1N1CCC2(CCN2C(C)C)C1` (centres unmarked) [Example 977, 1-(2-chloro-4-(3-hydroxy-5′-(1-isopropyl-1,6-diazaspiro[3.4]octan-6-yl)-6′-methoxy-6-methyl-[2,3′-bipyridin]-4-yl)phenyl)-3-methyl-1H-imidazol-2(3H)-one], the half-maximal inhibitory concentration (IC50) in assay [1] lay in the range of 0.01 to 1 nM. In addition, in assay [2] (setting [3]), the 50% growth inhibitory concentration (GI50) lay in the range of 0.3 to 30 nM.
For `Cc1cc(-c2ccc(-n3ccn(C)c3=O)c(Cl)c2)c(O)c(-c2cnc(N)c(N3CCC4(CCCN4C(C)C)C3)c2)n1` (centres unmarked) [Example 978, 1-(4-(6′-amino-3-hydroxy-5′-(1-isopropyl-1,7-diazaspiro[4.4]nonan-7-yl)-6-methyl-[2,3′-bipyridin]-4-yl)-2-chlorophenyl)-3-methyl-1H-imidazol-2(3H)-one], in assay [1], the IC50 was in the range of 0.01 to 1 nM. The same compound came in with a GI50 in assay [2] (setting [3]) of 0.3 to 30 nM.
For `Cn1ccn(-c2ccc(-c3ccnc(-c4cccc(N5CCN(C(C)(C)C)CC5)c4)c3O)cc2Cl)c1=O` [Example 979, 1-(4-(2-(3-(4-(tert-butyl)piperazin-1-yl)phenyl)-3-hydroxypyridin-4-yl)-2-chlorophenyl)-3-methyl-1H-imidazol-2(3H)-one], in that order: 1 to 10 nM and 0.3 to 30 nM.
For `CNc1ncc(-c2nc(C)cc(-c3ccc(-n4ccn(C)c4=O)c(Cl)c3)c2O)cc1N1CCC2(CCN2C(C)C)C1` (centres unmarked) [Example 980, 1-(2-chloro-4-(3-hydroxy-5′-(1-isopropyl-1,6-diazaspiro[3.4]octan-6-yl)-6-methyl-6′-(methylamino)-[2,3′-bipyridin]-4-yl)phenyl)-3-methyl-1H-imidazol-2(3H)-one], in that order: 1 to 10 nM and 0.3 to 30 nM.
For `Cc1cc(-c2ccc(-n3ccn(C)c3=O)c(Cl)c2)c(O)c(-c2cccc(N3CCC4(CCCN4C(C)C)C3)c2)n1` (centres unmarked) [Example 981, 1-(2-chloro-4-(3-hydroxy-2-(3-(1-isopropyl-1,7-diazaspiro[4.4]nonan-7-yl)phenyl)-6-methylpyridin-4-yl)phenyl)-3-methyl-1H-imidazol-2(3H)-one] the same measures were 1 to 10 nM and 0.3 to 30 nM.
As to `COc1ncc(-c2cc(F)cc(-c3ccc(-n4cc(C)n(C)c4=O)c(Cl)c3)c2O)cc1N1CCN(C(C)(C)C)CC1` [Example 982, 1-(3′-(5-(4-(tert-butyl)piperazin-1-yl)-6-methoxypyridin-3-yl)-3-chloro-5′-fluoro-2′-hydroxy-[1,1′-biphenyl]-4-yl)-3,4-dimethyl-1H-imidazol-2(3H)-one], the half-maximal inhibitory concentration (IC50) in assay [1] was in the range of 1 to 10 nM. Moreover, in assay [2] (setting [3]), the 50% growth inhibitory concentration (GI50) is 30 to 300 nM.
For `Cc1cc(-c2ccc(-n3ccn(C)c3=O)c(Cl)c2)c(O)c(-c2cccc(N3CCC4(CCN4C(C)C)C3)c2)n1` (centres unmarked) [Example 983, 1-(2-chloro-4-(3-hydroxy-2-(3-(1-isopropyl-1,6-diazaspiro[3.4]octan-6-yl)phenyl)-6-methylpyridin-4-yl)phenyl)-3-methyl-1H-imidazol-2(3H)-one], in that order: 0.01 to 1 nM and 0.3 to 30 nM.
Turning to `Cn1ccn(-c2ccc(-c3ccnc(-c4cnc(N)c(N5CCN(C(C)(C)C)CC5)c4)c3O)cc2Cl)c1=O` [Example 984, 1-(4-(6′-amino-5′-(4-(tert-butyl)piperazin-1-yl)-3-hydroxy-[2,3′-bipyridin]-4-yl)-2-chlorophenyl)-3-methyl-1H-imidazol-2(3H)-one], in assay [1], the IC50 is 10 to 100 nM. This compound also returned a GI50 in assay [2] (setting [3]) of 0.3 to 30 nM.
For `CNc1ncc(-c2nc(C)cc(-c3ccc(-n4ccn(C)c4=O)c(Cl)c3)c2O)cc1N1CCC2(CCCN2C(C)C)C1` (centres unmarked) [Example 985, 1-(2-chloro-4-(3-hydroxy-5′-(1-isopropyl-1,7-diazaspiro[4.4]nonan-7-yl)-6-methyl-6′-(methylamino)-[2,3′-bipyridin]-4-yl)phenyl)-3-methyl-1H-imidazol-2(3H)-one] the same measures were 1 to 10 nM and 0.3 to 30 nM.
For `CNc1ncc(-c2nccc(-c3ccc(-n4ccn(C)c4=O)c(Cl)c3)c2O)cc1N1CCN(C(C)(C)C)CC1` [Example 986, 1-(4-(5′-(4-(tert-butyl)piperazin-1-yl)-3-hydroxy-6′-(methylamino)-[2,3′-bipyridin]-4-yl)-2-chlorophenyl)-3-methyl-1H-imidazol-2(3H)-one] the same measures were 1 to 10 nM and 0.3 to 30 nM.
For `CC(C)N1CCC12CCN(c1cc(-c3cc(F)cc(-c4ccc(-n5ccn(C)c5=O)c(Cl)c4)c3O)cnc1N(C)C)C2` (centres unmarked) [Example 987, 1-(3-chloro-3′-(6-(dimethylamino)-5-(1-isopropyl-1,6-diazaspiro[3.4]octan-6-yl)pyridin-3-yl)-5′-fluoro-2′-hydroxy-[1,1′-biphenyl]-4-yl)-3-methyl-1H-imidazol-2(3H)-one] the same measures were 1 to 10 nM and 0.3 to 30 nM.
Consider `CN(C)c1ncc(-c2nccc(-c3ccc(-n4ccn(C)c4=O)c(Cl)c3)c2O)cc1N1CCN(C(C)(C)C)CC1` [Example 988, 1-(4-(5′-(4-(tert-butyl)piperazin-1-yl)-6′-(dimethylamino)-3-hydroxy-[2,3′-bipyridin]-4-yl)-2-chlorophenyl)-3-methyl-1H-imidazol-2(3H)-one], for which the IC50 in assay [1] is 1 to 10 nM. For the same compound, in assay [2] (setting [3]), the GI50 is 0.3 to 30 nM.
For `Cc1cc(-c2ccc(-n3ccn(C)c3=O)c(Cl)c2)c(O)c(-c2cc(N3CCN(C(C)(C)C)CC3)c3nccn3c2)n1` [Example 989, 1-(4-(2-(8-(4-(tert-butyl)piperazin-1-yl)imidazo[1,2-a]pyridin-6-yl)-3-hydroxy-6-methylpyridin-4-yl)-2-chlorophenyl)-3-methyl-1H-imidazol-2(3H)-one], the IC50 in assay [1] lay in the range of 1 to 10 nM. For the same compound, in assay [2] (SKM-1 antiproliferation assay), the concentration for 50% growth inhibition (GI50) was 0.3 to 30 nM.
For the compound `Cc1cc(-c2ccc(-n3ccn(C)c3=O)c(Cl)c2)c(O)c(-c2cnc(N(C)C)c(N3CCC4(CCN4C(C)C)C3)c2)n1` (centres unmarked) [Example 990, 1-(2-chloro-4-(6′-(dimethylamino)-3-hydroxy-5′-(1-isopropyl-1,6-diazaspiro[3.4]octan-6-yl)-6-methyl-[2,3′-bipyridin]-4-yl)phenyl)-3-methyl-1H-imidazol-2(3H)-one], the IC50 in assay [1] is 1 to 10 nM. The 50% growth inhibitory concentration (GI50) in assay [2] (setting [3]) lay within 0.3 to 30 nM.
For the compound `[2H]C([2H])([2H])n1ccn(-c2ccc(-c3cc(C)nc(-c4cccc(N5CCN(C(C)(C)C)CC5)c4)c3O)cc2Cl)c1=O` [Example 991, 1-(4-(2-(3-(4-(tert-Butyl)piperazin-1-yl)phenyl)-3-hydroxy-6-methylpyridin-4-yl)-2-chlorophenyl)-3-(methyl-d3)-1,3-dihydro-2H-imidazol-2-one], the IC50 in assay [1] lay within 1 to 10 nM. Moreover, the 50% growth inhibitory concentration (GI50) in assay [2] (setting [3]) lay in the range of 0.3 to 30 nM.
For `Cc1cc(-c2ccc(-n3ccn(C)c3=O)c(Cl)c2)c(N)c(-c2cccc(N3CCN(C(C)(C)C)CC3)c2)n1` [Example 992, 1-(4-(3-Amino-2-(3-(4-(tert-butyl)piperazin-1-yl)phenyl)-6-methylpyridin-4-yl)-2-chlorophenyl)-3-methyl-1H-imidazol-2(3H)-one] the same measures were 1 to 10 nM and 0.3 to 30 nM.

Values taken from patent publication US20250179059A1 (The Regents of the University of California, priority 2021, published 2025).
